Reference: patent US20260285816A1, “Piperazinyl-Modified Quinazolinyl-Aryl Urea Derivative, And Preparation Method And Use Thereof” (Guangxi Normal University, priority 2025, published 2026)
Counter-ions that a name gives are not always drawn. Like-named read-outs stand apart in the source and are kept apart here.

Tests used:
[1] = test system: 143B cells; test: CCK-8 anti-proliferative assay, 143B; assay type: cell-based, human; details: Homo sapiens, 143B, co-incubated 48 h, read-out: Anti-proliferative activity (IC50 ± standard deviation) 143B
Summary of the method: (§1)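 Compound was added at final concentrations of 1 to 30 μM, in triplicate, to cells at 70% confluence (5,000 per well seeded). After co-incubation, CCK-8 was added for 1–4 h depending on the cell line. Inhibition from OD450 relative to untreated cells gave IC50.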

[2] = test system: MG-63 cells; test: CCK-8 anti-proliferative assay, MG-63; assay type: cell-based, human; details: Homo sapiens, MG-63, co-incubated 48 h, read-out: Anti-proliferative activity (IC50 ± standard deviation) MG-63
Summary of the method: as §1

[3] = test system: human osteosarcoma 143B; test: 143B tumor-bearing nude mouse model; assay type: in vivo, nude mice; details: 40 mg/kg oral gavage, every 2 d, 42 d
Experimental: Experimental method: bladder cancer J82 cells in logarithmic growth phase were trypsinized, collected, and then centrifuged, and resuspended in serum-free DMEM medium after discarding an original medium. Cell density was adjusted, and 0.2 mL cell suspension was subcutaneously inoculated into 5-week-old BALB/c-nu mice (sex-balanced, 18-20 g) under a laminar flow clean bench. Post-inoculation, bleeding at injection sites was monitored. When tumors reached 50-80 mm^3, nude mice with good tumor growth status were randomized into 5 groups (n=6/group) for intraperitoneal administration. Tumor volume and body weight were recorded on Day 0. […] Dosing occurred every 2 d for 42 d. After administering the drug, mice were monitored for diarrhea, anorexia, lethargy, and allergic reactions (e.g., pruritus). The body weight of nude mice was measured every 2 days, and the long and short diameters of the tumors in nude mice were measured by using a vernier caliper, then the recording was finished.
Construction of the human osteosarcoma 143B tumor-bearing nude mouse model followed similar procedures, with identical dosing frequency but administration route changed to oral gavage. Specifically: When tumors reached 60-90 mm^3, mice were randomized into 4 groups (n=6). […]

[4] = test system: J82 cells; test: CCK-8 anti-proliferative assay, J82; assay type: cell-based, human; details: Homo sapiens, J82
Summary of the method: (§2)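 Cells seeded at 5,000/well and grown at 37° C., 5% CO2 to 70% confluency, then treated with compound at final 1, 2, 4, 6, 8, 12, 16, 24 and 30 μM in triplicate.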

[5] = test system: UM-UC-3 cells; test: CCK-8 anti-proliferative assay, UM-UC-3; assay type: cell-based, human; details: Homo sapiens, UMUC3, co-incubated 48 h, read-out: Anti-proliferative activity (IC50 ± standard deviation) UM-UC-3
Summary of the method: as §2

[6] = test system: T24 cells; test: CCK-8 anti-proliferative assay, T24; assay type: cell-based, human; details: Homo sapiens, T-24; Table 10; co-incubated 48 h; read-out: Anti-proliferative activity (IC50 ± standard deviation) T24
Summary of the method: as §1

[7] = test system: 5637 cells; test: CCK-8 anti-proliferative assay, 5637; assay type: cell-based, human; details: Homo sapiens
Summary of the method: as §2

[8] = test system: BxPC-3 cells; test: CCK-8 anti-proliferative assay, BxPC-3; assay type: cell-based, human; details: for IC50: Homo sapiens, BXPC-3, co-incubated 48 h, read-out: Anti-proliferative activity (IC50 ± standard deviation) BxPC-3
Summary of the method: as §1

[9] = test system: PANC-1 cells; test: CCK-8 anti-proliferative assay, PANC-1; assay type: cell-based, human; details: for IC50: Homo sapiens, PANC-1, co-incubated 48 h, read-out: Anti-proliferative activity (IC50 ± standard deviation) PANC-1
Summary of the method: as §1

[10] = test system: HeLa cells; test: CCK-8 anti-proliferative assay, HeLa; assay type: cell-based, human
Summary of the method: as §2

[11] = test system: MCF-7 cells; test: CCK-8 anti-proliferative assay, MCF-7; assay type: cell-based, human; details: Homo sapiens, MCF7; Table 12; co-incubated 48 h; read-out: Anti-proliferative activity (IC50 ± standard deviation) MCF-7
Summary of the method: as §2

[12] = test system: A549 cells; test: CCK-8 anti-proliferative assay, A549; assay type: cell-based, human
Summary of the method: as §2

[13] = test system: Hep G2 cells; test: CCK-8 anti-proliferative assay, Hep G2; assay type: cell-based, human; details: Homo sapiens, HepG2; Table 12; co-incubated 48 h; read-out: Anti-proliferative activity (IC50 ± standard deviation) Hep G2
Summary of the method: as §1

[14] = test system: SK-OV-3 cells; test: CCK-8 anti-proliferative assay, SK-OV-3; assay type: cell-based, human; details: Homo sapiens, SK-OV-3, co-incubated 48 h, read-out: Anti-proliferative activity (IC50 ± standard deviation) SK-OV-3
Summary of the method: as §2

[15] = test system: immortalized ureteral epithelial cells (SV-HUC-1); test: CCK-8 anti-proliferative assay, normal cells SV-HUC-1; assay type: cell-based, human; details: Homo sapiens, SV-HUC1, normal cells, co-incubated 48 h, read-out: Anti-proliferative activity (IC50 ± standard deviation) SV-HUC-1
Summary of the method: as §2

[16] = test system: embryonic lung fibroblasts (WI-38); test: CCK-8 anti-proliferative assay, normal cells WI-38; assay type: cell-based, human; details: Homo sapiens, WI-38, Table 13, co-incubated 48 h, read-out: Anti-proliferative activity (IC50 ± standard deviation) WI-38
Summary of the method: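 Absorbance at 450 nm after CCK-8 labelling (1–4 h, varying by cell line) gave inhibition relative to untreated control, from which IC50 values were derived. Compounds were applied at final concentrations of 1 to 30 μM in triplicate wells once cultures reached 70% confluency, with co-incubation for designated durations.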

[17] = test system: UM-UC-3 cells; test: Cell cycle analysis (PI staining, flow cytometry), UM-UC-3; assay type: cell-based, human
Experimental: Tumor cells (T24, UM-UC-3, 143B, BxPC-3) in logarithmic growth phase were inoculated into 70 mm culture dishes. After 70% confluency was reached, medium was replaced and treated with: compound 8-1j, ferroptosis inducer Erastin, or cell cycle blocker paclitaxel (PTX) for a specified duration. Post-incubation, cells were trypsinized, collected, centrifuged, and washed 2 times with pre-cooled phosphate-buffered saline (PBS). Pre-cooled 75% ethanol was added dropwise during vortexing for fixation at −20° C. overnight. After centrifugation (10 min), supernatant was discarded. Cells were rewashed with PBS and centrifuged. Following kit instructions (Beyotime, C1052, China), 0.5 mL staining buffer, 25 μL PI (propidium iodide) stain (20×), and 10 μL RNase A (50×) were mixed per sample. Cells were resuspended in PI staining solution and incubated at 37° C. in dark for 30 min (gentle shaking every 10 min). Samples were filtered through 200-mesh filters, transferred into a flow tube, and analyzed via BD FACSVerse flow cytometer. All experiments were conducted in 3 repeats. Compounds 8-2h and 8-2j were evaluated identically.

[18] = background; cited from earlier work
[19] = test system: human pancreatic cancer BxPC-3; test: BxPC-3 tumor-bearing nude mouse model; assay type: in vivo, nude mice
[20] = background; cited from earlier work; remark: listed apart in the source

For `N#CC1(c2ccc(NC(=O)c3cccnc3NCc3ccncc3)cc2)CCCC1` [Apat, apatinib mesylate, reference compound], the IC50 ([1]; Table 7) was 28.4 ± 1.29 µM, the IC50 ([2]; Table 7) was over 30 µM and the Tumor inhibition [3] was “weak tumor inhibition activity”.

Work on `COc1cc2ncnc(NCc3cccc(NC(=O)Nc4ccc(C(C)(C)C)cc4)c3)c2cc1OCCCCCCN1CCC(CN2CCN(c3ccccn3)CC2)CC1` [Compound 8-2j, N-(3-(((7-methoxy-6-((6-(4-((4-(pyridin-2-yl)piperazin-1-yl)methyl)piperidin-1-yl)hexyl)oxy)quinazolin-4-yl)amino)methyl)phenyl)-N′-(4-tert-butylphenyl)urea] yielded an IC50 ([4]; Table 10, co-incubated 48 h, read-out: Anti-proliferative activity (IC50 ± standard deviation) J82) of 3.42 ± 0.25 µM, an IC50 ([4]; read-out: IC50 values against J82 cells) of 3.42 ± 0.25 µM and an IC50 ([5]; Table 10) of 4.66 ± 0.29 µM. The IC50 [6] was 3.32 ± 0.15 µM, the IC50 ([7]; Table 10, co-incubated 48 h, read-out: Anti-proliferative activity (IC50 ± standard deviation) 5637) was 2.97 ± 0.23 µM and the IC50 ([7]; read-out: IC50 values against 5637 cells) was 2.97 ± 0.23 µM. For the same compound, the IC50 ([1]; Table 11) was 5.59 ± 0.49 µM, the IC50 ([2]; Table 11) was 4.64 ± 0.32 µM and the “Sensitivity of BxPC-3 / anti-proliferative activity against BxPC-3, in words” value [8] was “heightened sensitivity”. The IC50 ([8]; Table 11) was 6.15 ± 0.47 µM, the “Sensitivity of PANC-1, in words” value [9] was “heightened sensitivity” and the IC50 ([9]; Table 11) was 5.46 ± 0.31 µM. For the same compound, the “Sensitivity of HeLa, in words” value [10] was “sensitive”, the IC50 ([10]; Homo sapiens, HeLa, Table 12, co-incubated 48 h, read-out: Anti-proliferative activity (IC50 ± standard deviation) HeLa) was 3.81 ± 0.25 µM and the IC50 [11] was 5.73 ± 0.59 µM. The “Activity against A549 versus the 8-1 to 8-23 series, in words” value [12] was “significantly enhanced activity against A549”, the IC50 ([12]; Homo sapiens, A549, Table 13, co-incubated 48 h, read-out: Anti-proliferative activity (IC50 ± standard deviation) A549) was 3.09 ± 0.24 µM and the IC50 [13] was 3.81 ± 0.24 µM. For the same compound, the IC50 ([14]; Table 12) was 4.61 ± 0.38 µM, the IC50 ([15]; Table 13) was 8.91 ± 0.72 µM and the IC50 [16] was 8.79 ± 0.42 µM. The “Effect of co-administration with PTX on cell cycle” value ([17]; UM-UC-3, with PTX) was “Synergistic effects” and the “Cell cycle arrest phase” value ([17]; UM-UC-3 cells (FIG. 45)) was “arrest cell cycle at G2/M phase”.

In the case of `COc1cc(OC)cc(N(CCNC(C)C)c2ccc3ncc(-c4cnn(C)c4)nc3c2)c1` [Erda, erdafitinib], the Water solubility [18] is given as “poor water solubility”.

For `Nc1ccn([C@@H]2O[C@H](CO)[C@@H](O)C2(F)F)c(=O)n1` [Gem, gemcitabine, reference compound], the “Mice manifesting anorexia and emaciation after 4 doses” value ([19]; 24 mg/kg oral gavage) was 50%, the “Nude mice that died within 16 d” value ([19]; 24 mg/kg oral gavage, n=6) was 3 of 6 and the Toxicity observations ([19]; oral gavage, gemcitabine 24 mg/kg, 8-2h 12, 24, 36 mg/kg) was “significant gastrointestinal reactions”.

With `CNC(=O)c1cc(Oc2ccc(NC(=O)Nc3ccc(Cl)c(C(F)(F)F)c3)cc2)ccn1` [Sora, sorafenib, reference compound] the IC50 ([5]; Table 6) was 14.3 ± 1.51 µM, the IC50 ([1]; Table 7) was 22.7 ± 1.59 µM and the IC50 ([2]; Table 7) was 27.2 ± 1.89 µM. The “Sensitivity of BxPC-3 / anti-proliferative activity against BxPC-3, in words” value [8] was “weak anti-proliferative activity”, the IC50 ([8]; Table 7) was 13.4 ± 1.27 µM and the IC50 ([9]; Table 7) was 8.13 ± 0.56 µM. For the same compound, the IC50 ([14]; Table 9) was 13.8 ± 0.78 µM, the IC50 ([15]; Table 9) was 10.8 ± 0.54 µM and the Water solubility [18] was “poor aqueous solubility”. The Elimination/metabolism [20] was “rapid elimination/metabolism” and the Oral bioavailability [20] was “low oral bioavailability”.
